Laboratory results published in the NIST ThermoML archive (doi:10.1016/j.jct.2017.02.009).
± gives the expanded uncertainty stated by the source.

Assays:
[1] = 100 kPa, Liquid; for mass density: Vibrating tube method; for viscosity: Capillary tube (Ostwald / Ubbelohde) method
[2] = xn = mol fraction of the nth substance listed; conditions: 100 kPa, Liquid, x1 = 1; for mass density: Vibrating tube method

SMILES: C[S+](C)[O-] [dimethyl sulfoxide]
- mass density ([1]; 293.15 K): 1100.2 ± 1 kg/m3
- viscosity ([1]; 298.15 K): 1.985 ± 0.025 mPa·s
- mass density ([1]; 298.15 K): 1095.2 ± 1 kg/m3
- mass density ([1]; 303.15 K): 1090.2 ± 1 kg/m3
- mass density ([1]; 313.15 K): 1080.2 ± 1 kg/m3

SMILES: C[S+](C)[O-] [dimethyl sulfoxide] + O=C1CCCO1
- mass density ([2]; 293.15 K): 1100.2 ± 1 kg/m3
- viscosity ([2]; 298.15 K, Capillary tube (Ostwald / Ubbelohde) method): 1.985 ± 0.025 mPa·s
- mass density ([2]; 298.15 K): 1095.2 ± 1 kg/m3
- mass density ([2]; 303.15 K): 1090.2 ± 1 kg/m3
- mass density ([2]; 313.15 K): 1080.2 ± 1 kg/m3

SMILES: O=C1CCCO1 [γ-butyrolactone]
- mass density ([1]; 293.15 K): 1129.4 ± 1 kg/m3
- viscosity ([1]; 298.15 K): 1.72 ± 0.024 mPa·s
- mass density ([1]; 298.15 K): 1124.5 ± 1 kg/m3
- mass density ([1]; 303.15 K): 1119.6 ± 1 kg/m3
- mass density ([1]; 313.15 K): 1109.8 ± 1 kg/m3
